The record followed here is article PMC11242853, “The Antimicrobial Activity of Human Defensins at Physiological Non-Permeabilizing Concentrations Is Caused by the Inhibition of the Plasma Membrane H^+-ATPases” (International Journal of Molecular Sciences, 2024).

Assay [1] relates to Pseudomonas aeruginosa PAO1. Description: Antimicrobial spread-plate (CFU) killing assay, P. aeruginosa. The class given is cell-based. The procedure:
(§1) To determine whether the above microbicidal concentrations exert a permeabilizing effect on fungal and bacterial membranes, the influx of the fluorescent nucleic acid-binding dye propidium iodide (PI) in cells incubated with the peptides was assessed. In cells, dye uptake reflects membrane permeabilization, as PI itself cannot permeate through an intact phospholipid bilayer. […] To select an antimicrobial but non-permeabilizing concentration of each peptide for further assays, we defined as a non-permeabilizing inhibitory concentration (NPIC) the antimicrobial inhibitory concentration (≤10% viable cells) that permeabilized ≤ 10% of cells incubated (90 min at 37 °C) in buffer solution.
(§2) Microbial susceptibility to the peptides was determined in a spread-plate assay as described previously. Briefly, cell suspensions (10^6 cells/mL) in Tris buffer (10 mM Tris-HCl, pH 7.4) were incubated for 90 min at 37 °C with 2-fold serial peptide dilutions. Peptide concentrations ranged from 0 to 2 μM. After incubation, the number of viable cells was determined by plating aliquots (100 μL) in duplicate on plates (SDA for C. albicans, TSA for P. aeruginosa, and M17G agarified medium for L. lactis) that had been dried for 30 min at room temperature in a laminar flow hood. Plates were incubated for 24–48 h at 30 °C (C. albicans and L. lactis) or 24 h at 37 °C (P. aeruginosa). Dilutions yielding 50–200 colonies were counted. Cell viability values, expressed as colony-forming units (CFUs), were calculated relative to the incubation without added peptides and represent the means ± standard deviation (SD) from duplicates of three independent experiments. For inhibition assays, unless otherwise noted, cell suspensions were preincubated (15 min at 37 °C) with the appropriate inhibitor prior to the addition of peptides, but the inhibitor was present throughout the incubation period with the peptide (90 min at 37 °C). Other specific experimental conditions are described as appropriate. In some experiments, the concentrations of human lactoferrin against C. albicans (5 μM), P. aeruginosa (1 μM), and L. lactis (0.065 μM) were used in the control assays. In various viability assays, BM2 peptide (0.25 μM), CCCP (50 μM), colistin (4 μg/mL), nystatin (50 μM), oligomycin A (16 μg/mL), piericidin A (32 μM), and TEA (10 mM) were used.

In assay [2] the test system is Candida albicans ATCC 10231. Nature of the assay: Antimicrobial spread-plate (CFU) killing assay, C. albicans. The class given is cell-based. The settings on record: for effect of high extracellular K+ on candidacidal activity: 50 mM KCl, defensins at NPIC, hLf 5 μM, BM2 0.25 μM, nystatin 50 μM; for effect of Tok1p inhibition (TEA) on candidacidal activity: preincubation 15 min at 37 °C with 10 mM TEA+. The procedure:
as §1, §2

In assay [3] the test system is C. albicans cells. Description: Extracellular potassium measurement (K+-efflux, ICP-MS). The class given is cell-based, Candida albicans. The procedure:
Potassium measurements were performed via inductively coupled plasma mass spectrometry using an Agilent 7700x ICP-MS (Agilent Technologies, Santa Clara, CA, USA). C. albicans cells were cultured in SDB for 16–20 h at 30 °C. The cells were then subcultured in the same media to the mid-logarithmic growth phase and rapidly washed in sterile, deionized, double-distilled water. The cells (10^7 cells/mL) were immediately incubated with the peptides (NPIC) for 90 min at 37 °C. The tubes were centrifuged at 1100× g for 10 min and the supernatants were collected and stored at 4 °C until analysis. The percentage of cytosolic potassium released from cell suspensions treated with nystatin (50 μM) was determined in positive control assays. Total cellular K^+-content (100% value) was measured in the supernatant of cell suspensions previously treated with 0.5% (v/v) HClO4 alone, heated for 1 h at 95 °C, and centrifuged to remove cell debris. Results are expressed as the percentage (means ± SD) of K^+-release relative to the total cellular K^+-content from duplicates of at least three independent assays.

Assay [4] relates to C. albicans cells. Description: Oxygen consumption measurement (polarographic), C. albicans. The class given is cell-based, Candida albicans. Conditions: after 30 min; defensins 2 x NPIC, human lactoferrin 20 μM, piericidin A 32 µM; preincubated 15 min at 37 °C; untreated cells 94% ± 2%; means ± SD, three experiments. The procedure:
(§3) Oxygen consumption by C. albicans and P. aeruginosa cells was determined by polarographically using a biological oxygen monitor (dual digital-model 20; Rank Brothers Ltd., Cambridge, UK) at 25 °C. The apparatus consisted of a twin water-jacketed closed sample chamber, which enabled a control experiment to be conducted concurrently. The cells were grown to mid-log phase in SDB (C. albicans) or TSB (P. aeruginosa), washed twice in Tris buffer, and resuspended in the same buffer. Cell suspensions (approximately 10^7 cells/mL) were preincubated with defensins (2 x NPIC), human lactoferrin (20 μM), or piericidin A (32 μM) for 15 min at 37 °C. Oxygen consumption was recorded at 5-min intervals for a period of 30 min. Three independent experiments were performed, and the data are means ± SD.

For a further assay, the system named is P. aeruginosa cells. Nature of the assay: Oxygen consumption measurement (polarographic), P. aeruginosa. The class given is cell-based, Pseudomonas aeruginosa. Conditions: after 30 min; defensins 2 x NPIC, human lactoferrin 20 μM, piericidin A 32 µM; preincubated 15 min at 37 °C; untreated cells 83% ± 2%; means ± SD, three experiments. The procedure:
as §3

The test system of assay [5] is C. albicans cells. Nature of the assay: Total cellular ATP (BacTiter-Glo). The class given is cell-based, Candida albicans. Conditions: defensins at NPIC, human lactoferrin 5 μM, BM2 peptide 0.25 μM; 10^6 cells/mL; BacTiter-Glo luminescence. The procedure: Total ATP was measured using the BacTiter-Glo^TM Microbial Cell Viability Assay (Promega Co., Madison, WI, USA) according to the manufacturer’s instructions. […] Aliquots (100 µL) were incubated (90 min at 37 °C) with human defensins (NPICs). Human lactoferrin (5 μM) or BM2 peptide (0.25 μM) was used as positive controls. One hundred microliters of the incubation mixture was transferred to an opaque 96-well plate, mixed with an equal volume of BacTiter-Glo^TM reagent, and incubated for 15 min in the dark. The reagent uses a thermostable luciferase to generate luminescence in an ATP-dependent manner. The emitted luminescence was detected using a Varioskan Flash multimode reader (Thermo Scientific, Waltham, MA, USA) with a 10 s shaking and 1 s integration time. A calibration curve was generated for each experiment with ATP standards ranging from 1 to 1000 nM. All assays were performed at least three times in duplicate.

In assay [6] the test system is C. albicans cells. Description: Membrane potential monitoring with DiBAC4(3), flow cytometry. The class given is cell-based, Candida albicans. Conditions: peptides at NPIC, hLf 5 μM, BM2 0.25 μM; DiBAC4(3) 1 µg/mL. The procedure:
The membrane potential-sensitive probe DiBAC4(3) was used to monitor the transmembrane electrical potential of C. albicans cells as previously described with slight modifications. Briefly, cells were harvested from mid-log phase cultures via centrifugation and suspended in Tris buffer. The cell suspension was adjusted to 10^6 cells/mL and then incubated with DiBAC4(3) at a final concentration of 1 µg/mL for 30 min. Fluorescence was measured using a CytoFLEX S flow cytometer (Beckman Coulter) with excitation at 561 nm and emission at 690/50 nm. For each treatment, 5000 events were counted per experiment with an exposure time of 1000 ms. Results were analyzed using CytExpert 2.1 Acquisition software. As positive controls, human lactoferrin and BM2 peptide were used. Three independent experiments were performed and data are expressed as means ± SD.

As to `N#CC(C#N)=NNc1cccc(Cl)c1` [CCCP, carbonyl cyanide m-chlorophenylhydrazone, reference compound], the “viability of P. aeruginosa with CCCP alone, acidic extracellular pH” value in assay [1] (50 µM CCCP, pH of 5.5 and 6.5) was “decreased”. In assay [1] (50 µM CCCP, pH of 7.4, 7.7, and 8.0), the “viability of P. aeruginosa with CCCP alone, alkaline pH” value is on record as “not significantly altered”.
With `C[C@@H]1[C@H](O)[C@@H](C)/C=C/C=C/CC/C=C/C=C/C=C/C=C/C(O[C@H]2O[C@H](C)[C@@H](O)[C@H](N)[C@@H]2O)CC2O[C@](O)(CC(O)C(O)CCC(O)CC(O)CC(O)CC(=O)O[C@H]1C)CC(O)C2C(=O)O` (stereo partly drawn) [nystatin, reference compound], the “effect of high extracellular K+ on candidacidal activity” value in assay [2] was “no effect”. In assay [2] (peptides at NPIC), the “effect of Tok1p inhibition (TEA) on candidacidal activity” value was “not altered”. Also, the “K^+-release from yeast cells” value in the assay with C. albicans cells [3] (nystatin 50 μM, 90 min, 37 °C, relative to total cellular K+-content (100%), ICP-MS) is given as 70–85%.
As to `C/C=C(\C)[C@H](O)[C@H](C)/C=C(C)/C=C/C/C(C)=C/Cc1nc(OC)c(OC)c(O)c1C` [piericidin A, reference compound], the “oxygen consumption percentage of C. albicans” value in the assay with C. albicans cells [4] is recorded as 20% ± 3%. Also, the “O2 consumption of P. aeruginosa” value in the assay on P. aeruginosa cells was 17% ± 3%.
Consider “D-NH2-RRRFWWFRRR-CONH2 [BM2 peptide, positive control, reference compound]”, for which, in assay [2], the “effect of high extracellular K+ on candidacidal activity” value was “significantly decreased”. In addition, the “effect of piericidin A on candidacidal activity” value in assay [2] (cells preincubated 15 min at 37 °C with 32 µM piericidin A, then peptides (NPIC) 90 min) is “significantly (p < 0.001) inhibited”. Further, the “effect of oligomycin A on candidacidal activity” value in assay [2] (preincubated 15 min at 37 °C with 16 μg/mL oligomycin A, peptides at NPIC) was “significantly reduced”. Besides, the “effect of Tok1p inhibition (TEA) on candidacidal activity” value in assay [2] (peptides at NPIC) is reported as “reduced”. For the same molecule, the “K^+-efflux pattern in C. albicans” value with C. albicans cells [3] (peptides at NPIC / microbicidal concentrations, 10^7 cells/mL, 90 min at 37 °C, steady state compared with maximum intracellular K+ of untreated cells) was “partial K^+-efflux”. In addition, in the assay on C. albicans cells [5], the “increase in ATP levels compared to the untreated control” value is on record as ~ 9 fold. In addition, the “transmembrane electrical potential (DiBAC4(3) fluorescence)” value in the assay on C. albicans cells [6] is given as “increase in DiBAC4(3) fluorescence”.
Regarding “colistin (polymyxin E) [reference compound]”, the “effect of high extracellular K+ on pseudomonacidal activity” value in assay [1] (50 mM KCl, defensins at NPIC, hLf 1 μM, colistin 4 μg/mL) is “no effect”.
